From patent US6544991B2, “Compositions and methods for treating bacterial infections” (priority 2000, dated 2003)
Where two headings read alike, the source gives them in different places. Each block holds one compound with its values, some of them ahead of it.

Assays:
Staph. aureus 29213 = assay: MIC, quality control strain; type: cell-based; settings: for MIC: Staphylococcus aureus, read-out: MIC Values
Description: (§1) Bacterial isolates were obtained from human infections. The isolates were maintained frozen in a liquid nitrogen freezer and plated on Trypticase Soy Agar (TSA) plates supplemented with 5% sheep blood. The quality control strain Staph. aureus 29213 was originally acquired from the American Type Culture Collection (Rockville, Md.).
(§2) MICs were determined by an agar dilution method or microbroth dilution method recommended by NCCLS. Synergy was assessed by agar dilution checker-board method. Minimal inhibitory concentrations (MICS) for each separate drug were determined. The fractional inhibitory concentration (FIC) values were calculated by the MIC of Drug A (e.g., sulbactam/ampicillin) and Drug B (e.g., linezolid or arbekacin) in combination/MIC of Drug A or B alone. The FIC index was determined according to the following formula: [formula]

VRSA strains = assay: MIC by agar dilution or microbroth dilution method (NCCLS), VRSA strains; type: cell-based, Staph. aureus; settings: VRSA strains (n = 10); for MIC: Staphylococcus aureus
Description: as §1, §2
In total, 48 MRSA strains were tested, including ten VRSA strains isolated from five different countries in the world, 33 MRSA strains isolated from ten Japanese university hospitals, and five MRSA type strains from Juntendo University, Department of Bacteriology, Tokyo, Japan.

MRSA strains = assay: MIC by agar dilution or microbroth dilution method (NCCLS); type: cell-based, Staph. aureus; settings: for MIC: Staphylococcus aureus
Description: as §1, §2

[1] = strain ATCC 29213, control sample (Ex. 26)
[2] = strain ATCC29213, control sample (Ex. 37)
[3] = strain JSCC 581 (lacks the mecA gene)
[4] = strain JSCC 590 (lacks the mecA gene)

- MIC Values (Staph. aureus 29213; [1]): 8 µg/mL
- MIC Values (Staph. aureus 29213; [2]): 4 µg/mL
- MICs 50% (VRSA strains): >128 mg/L
- MICs 90% (VRSA strains): >128 mg/L
- MICs Range (VRSA strains): >128 mg/L
- MICs 50% (MRSA strains; MRSA strains (n = 38)): >128 mg/L
- MICs 90% (MRSA strains; MRSA strains (n = 38)): >128 mg/L
- MIC Values (MRSA strains; strain 85/2082): >128 µg/mL
- MIC Values (MRSA strains; strain 99.3700W): >128 µg/mL
- MIC Values (MRSA strains; strain 99.3759V): >128 µg/mL
- MIC Values (MRSA strains; strain AMC 11094): >128 µg/mL
- MIC Values (MRSA strains; strain BM12612(new)): >128 µg/mL
- MIC Values (MRSA strains; strain H1): 2048 µg/mL
- MIC Values (MRSA strains; strain HIP 5827): >128 µg/mL
- MIC Values (MRSA strains; strain HIP 5836): >128 µg/mL
- MIC Values (MRSA strains; strain HIP 6297): >128 µg/mL
- MIC Values (MRSA strains; strain HIP 7737): >128 µg/mL
- MIC Values (MRSA strains; strain JSCC 340): >128 µg/mL
- MIC Values (MRSA strains; strain JSCC 351): >128 µg/mL
- MIC Values (MRSA strains; strain JSCC 363): >128 µg/mL
- MIC Values (MRSA strains; strain JSCC 381): >128 µg/mL
- MIC Values (MRSA strains; strain JSCC 390): >128 µg/mL
- MIC Values (MRSA strains; strain JSCC 401): >128 µg/mL
- MIC Values (MRSA strains; strain JSCC 413): >128 µg/mL
- MIC Values (MRSA strains; strain JSCC 431): >128 µg/mL
- MIC Values (MRSA strains; strain JSCC 440): >128 µg/mL
- MIC Values (MRSA strains; strain JSCC 451): >128 µg/mL
- MIC Values (MRSA strains; strain JSCC 463): >128 µg/mL
- MIC Values (MRSA strains; strain JSCC 481): >128 µg/mL
- MIC Values (MRSA strains; strain JSCC 490): >128 µg/mL
- MIC Values (MRSA strains; strain JSCC 501): >128 µg/mL
- MIC Values (MRSA strains; strain JSCC 513): >128 µg/mL
- MIC Values (MRSA strains; strain JSCC 531): >128 µg/mL
- MIC Values (MRSA strains; strain JSCC 540): >128 µg/mL
- MIC Values (MRSA strains; strain JSCC 551): >128 µg/mL
- MIC Values (MRSA strains; strain JSCC 563): 16 µg/mL
- MIC Values (MRSA strains; [3]): 16 µg/mL
- MIC Values (MRSA strains; [4]): 16 µg/mL
- MIC Values (MRSA strains; strain JSCC 601): >128 µg/mL
- MIC Values (MRSA strains; strain JSCC 640): >128 µg/mL
- MIC Values (MRSA strains; strain JSCC 651): >128 µg/mL
- MIC Values (MRSA strains; strain JSCC 663): >128 µg/mL
- MIC Values (MRSA strains; strain JSCC 681): >128 µg/mL
- MIC Values (MRSA strains; strain JSCC 690): >128 µg/mL
- MIC Values (MRSA strains; strain JSCC 701): >128 µg/mL
- MIC Values (MRSA strains; strain JSCC 713): >128 µg/mL
- MIC Values (MRSA strains; strain JSCC 731): >128 µg/mL
- MIC Values (MRSA strains; strain JSCC 740): >128 µg/mL
- MIC Values (MRSA strains; strain JSCC 751): >128 µg/mL
- MIC Values (MRSA strains; strain JSCC 763): >128 µg/mL
- MIC Values (MRSA strains; strain JSCC 781): >128 µg/mL
- MIC Values (MRSA strains; strain JSCC 870): >128 µg/mL
- MIC Values (MRSA strains; strain LIM 2): >128 µg/mL
- MIC Values (MRSA strains; strain Mu 3): >128 µg/mL
- MIC Values (MRSA strains; strain Mu 50): >128 µg/mL
- MIC Values (MRSA strains; strain N315): 64 µg/mL
- MIC Values (MRSA strains; strain NCTC 10442): >128 µg/mL
Compound: CO/N=C(\C(=O)N[C@@H]1C(=O)N2C(C(=O)O)=CCS[C@H]12)c1csc(N)n1 [CZX, ceftizoxime]

- MIC (Staph. aureus 29213; ATCC29213, strain ATCC 29213, control sample (Ex. 26)): 0.25 µg/mL
- MIC (Staph. aureus 29213; ATCC29213, strain ATCC29213, control sample (Ex. 37)): 0.25 µg/mL
- MIC (VRSA strains; read-out: MICs 50%): 1 µg/mL
- MIC (VRSA strains; read-out: MICs 90%): 4 µg/mL
- MICs Range (VRSA strains): 0.125 to 4 mg/L
- MICs Range (MRSA strains; MRSA strains (n = 38)): 0.125 to 4 mg/L
- MIC (MRSA strains; MRSA / NCTC 10442, strain NCTC 10442, read-out: MIC Values): 0.125 µg/mL
- MIC (MRSA strains; MRSA, MRSA strains (n = 38), read-out: MICs 50%): 0.5 µg/mL
- MIC (MRSA strains; MRSA, MRSA strains (n = 38), read-out: MICs 90%): 2 µg/mL
- MIC (MRSA strains; MRSA, strain 85/2082, read-out: MIC Values): 0.25 µg/mL
- MIC (MRSA strains; MRSA, strain 99.3700W, read-out: MIC Values): 4 µg/mL
- MIC (MRSA strains; MRSA, strain 99.3759V, read-out: MIC Values): 2 µg/mL
- MIC (MRSA strains; MRSA, strain AMC 11094, read-out: MIC Values): 0.25 µg/mL
- MIC (MRSA strains; MRSA, strain BM12612(new), read-out: MIC Values): 2 µg/mL
- MIC (MRSA strains; MRSA, strain H1, read-out: MIC Values): 1 µg/mL
- MIC (MRSA strains; MRSA, strain HIP 5827, read-out: MIC Values): 1 µg/mL
- MIC (MRSA strains; MRSA, strain HIP 5836, read-out: MIC Values): 1 µg/mL
- MIC (MRSA strains; MRSA, strain HIP 6297, read-out: MIC Values): 0.125 µg/mL
- MIC (MRSA strains; MRSA, strain HIP 7737, read-out: MIC Values): 0.125 µg/mL
- MIC (MRSA strains; MRSA, strain JSCC 340, read-out: MIC Values): 1 µg/mL
- MIC (MRSA strains; MRSA, strain JSCC 351, read-out: MIC Values): 1 µg/mL
- MIC (MRSA strains; MRSA, strain JSCC 363, read-out: MIC Values): 1 µg/mL
- MIC (MRSA strains; MRSA, strain JSCC 381, read-out: MIC Values): 0.5 µg/mL
- MIC (MRSA strains; MRSA, strain JSCC 390, read-out: MIC Values): 0.5 µg/mL
- MIC (MRSA strains; MRSA, strain JSCC 401, read-out: MIC Values): 0.5 µg/mL
- MIC (MRSA strains; MRSA, strain JSCC 413, read-out: MIC Values): 1 µg/mL
- MIC (MRSA strains; MRSA, strain JSCC 431, read-out: MIC Values): 1 µg/mL
- MIC (MRSA strains; MRSA, strain JSCC 440, read-out: MIC Values): 0.25 µg/mL
- MIC (MRSA strains; MRSA, strain JSCC 451, read-out: MIC Values): 4 µg/mL
- MIC (MRSA strains; MRSA, strain JSCC 463, read-out: MIC Values): 0.5 µg/mL
- MIC (MRSA strains; MRSA, strain JSCC 481, read-out: MIC Values): 1 µg/mL
- MIC (MRSA strains; MRSA, strain JSCC 490, read-out: MIC Values): 0.5 µg/mL
- MIC (MRSA strains; MRSA, strain JSCC 501, read-out: MIC Values): 0.5 µg/mL
- MIC (MRSA strains; MRSA, strain JSCC 513, read-out: MIC Values): 0.25 µg/mL
- MIC (MRSA strains; MRSA, strain JSCC 531, read-out: MIC Values): 0.5 µg/mL
- MIC (MRSA strains; MRSA, strain JSCC 540, read-out: MIC Values): 1 µg/mL
- MIC (MRSA strains; MRSA, strain JSCC 551, read-out: MIC Values): 2 µg/mL
- MIC (MRSA strains; MRSA, strain JSCC 563, read-out: MIC Values): 0.125 µg/mL
- MIC (MRSA strains; MRSA, strain JSCC 581 (lacks the mecA gene), read-out: MIC Values): 0.5 µg/mL
- MIC (MRSA strains; MRSA, strain JSCC 590 (lacks the mecA gene), read-out: MIC Values): 0.25 µg/mL
- MIC (MRSA strains; MRSA, strain JSCC 601, read-out: MIC Values): 0.25 µg/mL
- MIC (MRSA strains; MRSA, strain JSCC 640, read-out: MIC Values): 2 µg/mL
- MIC (MRSA strains; MRSA, strain JSCC 651, read-out: MIC Values): 1 µg/mL
- MIC (MRSA strains; MRSA, strain JSCC 663, read-out: MIC Values): 0.5 µg/mL
- MIC (MRSA strains; MRSA, strain JSCC 681, read-out: MIC Values): 1 µg/mL
- MIC (MRSA strains; MRSA, strain JSCC 690, read-out: MIC Values): 2 µg/mL
- MIC (MRSA strains; MRSA, strain JSCC 701, read-out: MIC Values): 1 µg/mL
- MIC (MRSA strains; MRSA, strain JSCC 713, read-out: MIC Values): 2 µg/mL
- MIC (MRSA strains; MRSA, strain JSCC 731, read-out: MIC Values): 0.5 µg/mL
- MIC (MRSA strains; MRSA, strain JSCC 740, read-out: MIC Values): 0.125 µg/mL
- MIC (MRSA strains; MRSA, strain JSCC 751, read-out: MIC Values): 2 µg/mL
- MIC (MRSA strains; MRSA, strain JSCC 763, read-out: MIC Values): 0.25 µg/mL
- MIC (MRSA strains; MRSA, strain JSCC 781, read-out: MIC Values): 2 µg/mL
- MIC (MRSA strains; MRSA, strain JSCC 870, read-out: MIC Values): 0.5 µg/mL
- MIC (MRSA strains; MRSA, strain LIM 2, read-out: MIC Values): 1 µg/mL
- MIC (MRSA strains; MRSA, strain Mu 3, read-out: MIC Values): 2 µg/mL
- MIC (MRSA strains; MRSA, strain Mu 50, read-out: MIC Values): 4 µg/mL
- MIC (MRSA strains; MRSA, strain N315, read-out: MIC Values): 0.5 µg/mL
Compound: NCC[C@H](O)C(=O)N[C@@H]1C[C@H](N)[C@@H](O[C@H]2O[C@H](CN)CC[C@H]2N)[C@H](O)[C@H]1O[C@H]1O[C@H](CO)[C@@H](O)[C@H](N)[C@H]1O [ABK, arbekacin]

- MIC Values (Staph. aureus 29213; [1]): 0.25 µg/mL
- MIC Values (Staph. aureus 29213; [2]): 0.25 µg/mL
- MIC Values (MRSA strains; strain 85/2082): 64 µg/mL
- MIC Values (MRSA strains; strain HIP 6297): 64 µg/mL
- MIC Values (MRSA strains; strain JSCC 563): 2 µg/mL
- MIC Values (MRSA strains; [3]): 1 µg/mL
- MIC Values (MRSA strains; [4]): 1 µg/mL
- MIC Values (MRSA strains; strain JSCC 601): 64 µg/mL
- MIC Values (MRSA strains; strain N315): 16 µg/mL
Compound: Cc1onc(-c2ccccc2)c1C(=O)N[C@@H]1C(=O)N2[C@@H]1SC(C)(C)[C@@H]2C(=O)O [MPIPC, oxacillin]
